# Measured values reported in ChEMBL document CHEMBL3046368, “Synthesis of benzothiazole derivatives and their biological evaluation as anticancer agents” (2012).
# Key:
# Format in all cases: functional
# T47D = test: Cytotoxicity against Homo sapiens (human) T47D cells after 48 hr by SRB assay
# Hs-578T = test: Cytotoxicity against Homo sapiens (human) Hs578T cells after 48 hr by SRB assay
# MDA-MB-231 = test: Cytotoxicity against Homo sapiens (human) MDA-MB-231 cells after 48 hr by SRB assay; conditions: MDA-MB-231, 48 h
# MCF7 = test: Cytotoxicity against Homo sapiens (human) MCF7 cells after 48 hr by SRB assay; conditions: MCF7, 48 h
# DU-145 = test: Cytotoxicity against Homo sapiens (human) DU145 cells after 48 hr by SRB assay; conditions: DU-145, 48 h
# PC-3 = test: Cytotoxicity against Homo sapiens (human) PC3 cells after 48 hr by SRB assay; conditions: PC-3, 48 h
# UO-31 = test: Cytotoxicity against Homo sapiens (human) UO31 cells after 48 hr by SRB assay; conditions: UO-31, 48 h
# RXF 393 = test: Cytotoxicity against Homo sapiens (human) RXF393 cells after 48 hr by SRB assay; conditions: RXF 393, 48 h
# CAKI-1 = test: Cytotoxicity against Homo sapiens (human) Caki1 cells after 48 hr by SRB assay; conditions: CAKI-1, 48 h
# ACHN = test: Cytotoxicity against Homo sapiens (human) ACHN cells after 48 hr by SRB assay
# A498 = test: Cytotoxicity against Homo sapiens (human) A498 cells after 48 hr by SRB assay; conditions: A498, 48 h
# SK-OV-3 = test: Cytotoxicity against Homo sapiens (human) SKOV3 cells after 48 hr by SRB assay; conditions: SK-OV-3, 48 h
# NCI/ADR-RES = test: Cytotoxicity against Homo sapiens (human) NCI/ADR-RES cells after 48 hr by SRB assay
# OVCAR-3 = test: Cytotoxicity against Homo sapiens (human) OVCAR3 cells after 48 hr by SRB assay; conditions: OVCAR-3, 48 h
# IGROV-1 = test: Cytotoxicity against Homo sapiens (human) IGROV1 cells after 48 hr by SRB assay; conditions: IGROV-1, 48 h
# UACC-257 = test: Cytotoxicity against Homo sapiens (human) UACC257 cells after 48 hr by SRB assay; conditions: UACC-257, 48 h
# UACC-62 = test: Cytotoxicity against Homo sapiens (human) UACC62 cells after 48 hr by SRB assay; conditions: UACC-62, 48 h
# SK-MEL-28 = test: Cytotoxicity against Homo sapiens (human) SK-MEL-28 cells after 48 hr by SRB assay; conditions: SK-MEL-28, 48 h
# SK-MEL-2 = test: Cytotoxicity against Homo sapiens (human) SK-MEL-2 cells after 48 hr by SRB assay; conditions: SK-MEL-2, 48 h
# M14 = test: Cytotoxicity against Homo sapiens (human) M14 cells after 48 hr by SRB assay; conditions: M14, 48 h
# MDA-MB-435 = test: Cytotoxicity against Homo sapiens (human) MDA-MB-435 cells after 48 hr by SRB assay; conditions: MDA-MB-435, 48 h
# U-251 = test: Cytotoxicity against Homo sapiens (human) U251 cells after 48 hr by SRB assay; conditions: U-251, 48 h
# LOX IMVI = test: Cytotoxicity against Homo sapiens (human) LOXIMVI cells after 48 hr by SRB assay
# SNB-75 = test: Cytotoxicity against Homo sapiens (human) SNB75 cells after 48 hr by SRB assay; conditions: SNB-75, 48 h
# SF-268 = test: Cytotoxicity against Homo sapiens (human) SF268 cells after 48 hr by SRB assay; conditions: SF-268, 48 h
# SF-295 = test: Cytotoxicity against Homo sapiens (human) SF295 cells after 48 hr by SRB assay; conditions: SF-295, 48 h
# KM12 = test: Cytotoxicity against Homo sapiens (human) KM12 cells after 48 hr by SRB assay; conditions: KM12, 48 h
# SW-620 = test: Cytotoxicity against Homo sapiens (human) SW620 cells after 48 hr by SRB assay; conditions: SW-620, 48 h
# NCI-H522 = test: Cytotoxicity against Homo sapiens (human) NCI-H522 cells after 48 hr by SRB assay; conditions: NCI-H522, 48 h
# NCI-H322M = test: Cytotoxicity against Homo sapiens (human) NCI-H322M cells after 48 hr by SRB assay
# HOP-92 = test: Cytotoxicity against Homo sapiens (human) HOP92 cells after 48 hr by SRB assay; conditions: HOP-92, 48 h
# SR = test: Cytotoxicity against Homo sapiens (human) SR cells after 48 hr by SRB assay
# A549 = test: Cytotoxicity against Homo sapiens (human) A549 cells after 48 hr by SRB assay; conditions: A549, 48 h
# MOLT-4 = test: Cytotoxicity against Homo sapiens (human) MOLT4 cells after 48 hr by SRB assay; conditions: MOLT-4, 48 h
# RPMI-8226 = test: Cytotoxicity against Homo sapiens (human) RPMI8226 cells after 48 hr by SRB assay; conditions: RPMI-8226, 48 h
# K562 = test: Cytotoxicity against Homo sapiens (human) K562 cells after 48 hr by SRB assay; conditions: K562, 48 h
# [1] = Cytotoxicity against Homo sapiens (human) breast cancer cells assessed as cell growth at 10^-5 M after 48 hr by SRB assay relative to control; conditions: Cancer cell lines, read-out: Activity
# [2] = Cytotoxicity against Homo sapiens (human) renal cancer cells assessed as cell growth at 10^-5 M after 48 hr by SRB assay relative to control; conditions: Cancer cell lines, read-out: Activity
# [3] = Cytotoxicity against Homo sapiens (human) ovarian cancer cells assessed as cell growth at 10^-5 M after 48 hr by SRB assay relative to control; conditions: Cancer cell lines, read-out: Activity
# [4] = Cytotoxicity against Homo sapiens (human) melanoma cells assessed as cell growth at 10^-5 M after 48 hr by SRB assay relative to control; conditions: read-out: Activity
# [5] = Cytotoxicity against Homo sapiens (human) CNSC cells assessed as cell growth at 10^-5 M after 48 hr by SRB assay relative to control; conditions: read-out: Activity
# [6] = Cytotoxicity against Homo sapiens (human) NSCLC cells assessed as cell growth at 10^-5 M after 48 hr by SRB assay relative to control; conditions: read-out: Activity
# [7] = Cytotoxicity against Homo sapiens (human) leukemia cells assessed as cell growth at 10^-5 M after 48 hr by SRB assay relative to control; conditions: read-out: Activity
# HL-60(TB) = test: Cytotoxicity against Homo sapiens (human) HL-60(TB) cells after 48 hr by SRB assay; conditions: HL-60, 48 h
# NCI-H460 = test: Cytotoxicity against Homo sapiens (human) NCI-H460 cells after 48 hr by SRB assay; conditions: NCI-H460, 48 h
# NCI-H23 = test: Cytotoxicity against Homo sapiens (human) NCI-H23 cells after 48 hr by SRB assay; conditions: NCI-H23, 48 h
smiles,measurement,setting,value
N#Cc1ccc(NC(=O)Nc2nc3ccc(OC(F)(F)F)cc3s2)cc1,GI50,T47D,427 nM
same,GI50,Hs-578T,1780 nM
same,GI50,MDA-MB-231,933 nM
same,GI50,MCF7,1000 nM
same,GI50,DU-145,2690 nM
same,GI50,PC-3,1350 nM
same,GI50,UO-31,1660 nM
same,GI50,RXF 393,1860 nM
same,GI50,CAKI-1,1580 nM
same,GI50,ACHN,724 nM
same,GI50,A498,468 nM
same,GI50,SK-OV-3,2630 nM
same,GI50,NCI/ADR-RES,1550 nM
same,GI50,OVCAR-3,575 nM
same,GI50,IGROV-1,2000 nM
same,GI50,UACC-257,1350 nM
same,GI50,UACC-62,741 nM
same,GI50,SK-MEL-28,2290 nM
same,GI50,SK-MEL-2,1780 nM
same,GI50,M14,2400 nM
same,GI50,MDA-MB-435,1410 nM
same,GI50,U-251,1410 nM
same,GI50,LOX IMVI,1480 nM
same,GI50,SNB-75,1820 nM
same,GI50,SF-268,3090 nM
same,GI50,SF-295,1170 nM
same,GI50,KM12,1020 nM
same,GI50,SW-620,1620 nM
same,GI50,NCI-H522,427 nM
same,GI50,NCI-H322M,2400 nM
same,GI50,HOP-92,324 nM
same,GI50,SR,741 nM
same,GI50,A549,1200 nM
same,GI50,MOLT-4,1860 nM
same,GI50,RPMI-8226,1000 nM
same,GI50,K562,537 nM
same,growth at 10 µM,[1],-5.18%
same,growth at 10 µM,[2],-7.46%
same,growth at 10 µM,[3],8.95%
same,growth at 10 µM,[4],-9.77%
same,growth at 10 µM,[5],2.6%
same,growth at 10 µM,[6],-6.18%
same,growth at 10 µM,[7],-17.4%
same,GI50,HL-60(TB),2450 nM
same,GI50,NCI-H460,603 nM
same,GI50,NCI-H23,575 nM
O=C(Nc1ccc(F)cc1)Nc1nc2ccc(OC(F)(F)F)cc2s1,GI50,T47D,2630 nM
same,GI50,Hs-578T,3090 nM
same,GI50,MDA-MB-231,3310 nM
same,GI50,MCF7,2140 nM
same,GI50,DU-145,3470 nM
same,GI50,PC-3,2820 nM
same,GI50,UO-31,3470 nM
same,GI50,RXF 393,2690 nM
same,GI50,CAKI-1,2290 nM
same,GI50,ACHN,2400 nM
same,GI50,A498,2950 nM
same,GI50,SK-OV-3,2570 nM
same,GI50,NCI/ADR-RES,3390 nM
same,GI50,OVCAR-3,2240 nM
same,GI50,IGROV-1,3890 nM
same,GI50,UACC-257,3550 nM
same,GI50,UACC-62,3550 nM
same,GI50,SK-MEL-28,3630 nM
same,GI50,SK-MEL-2,3090 nM
same,GI50,M14,4370 nM
same,GI50,MDA-MB-435,2950 nM
same,GI50,U-251,3980 nM
same,GI50,LOX IMVI,3240 nM
same,GI50,SNB-75,3470 nM
same,GI50,SF-268,3720 nM
same,GI50,SF-295,2570 nM
same,GI50,KM12,2690 nM
same,GI50,SW-620,3720 nM
same,GI50,NCI-H522,3160 nM
same,GI50,NCI-H322M,4470 nM
same,GI50,HOP-92,3890 nM
same,GI50,SR,3720 nM
same,GI50,A549,3470 nM
same,GI50,MOLT-4,3090 nM
same,GI50,RPMI-8226,2510 nM
same,GI50,K562,3550 nM
same,growth at 10 µM,[1],19.2%
same,growth at 10 µM,[2],15.8%
same,growth at 10 µM,[3],12.9%
same,growth at 10 µM,[4],12%
same,growth at 10 µM,[5],21.1%
same,growth at 10 µM,[6],5.63%
same,growth at 10 µM,[7],17.3%
same,GI50,HL-60(TB),3020 nM
same,GI50,NCI-H460,3020 nM
same,GI50,NCI-H23,2880 nM
